{
  "source": "patent US20220072324A1",
  "about": "“METHOD AND SYSTEM FOR APPLYING PULSED ELECTRIC FIELDS WITH HIGH […] MAGNETIC CORES” (Board of Supervisors of Louisiana State University and …, priority 2018, published 2022)",
  "test_system": "mouse breast cancer 4T1 cells xenografts",
  "experiment": "In vivo validation of Targeted Osmotic Lysis (TOL) in a breast cancer mouse model",
  "set-up": "species or system BALBc mice",
  "conditions": "TOL: 7 mg/kg digoxin s.c. five times at 1 hr intervals plus pulsed magnetic fields from toroid device for 30 min, day 0 and day 1; versus control groups; FIG. 9",
  "procedure": "FIG. 9 depicts in vivo validation of the therapeutic efficacy of pulsed magnetic fields inducing osmotic lysis in a breast cancer mouse model. Four groups of female, immune competent BALBc mice (n=8) with xenografts (0.7-1.2 cm diameter lower back) were established after injection of 500K highly malignant mouse breast cancer 4T1 cells in 7 mg/kg digoxin or saline (s.c. back of neck) five times at 1 hr intervals. This protocol establishes steady-state pharmacokinetics in even poorly vascularized tissues. The mice were exposed to the pulsed magnetic fields generated by a toroid device, for 30 min starting 15 min after the last injection. This treatment was administered on day 0 (first day of treatment), and on day 1. Mice were monitored for tumor growth and were sacrificed when they met the NIH criteria for humane endpoint euthanasia.",
  "data": [
    {"smiles": "C[C@H]1O[C@@H](O[C@H]2[C@@H](O)C[C@H](O[C@H]3[C@@H](O)C[C@H](O[C@H]4CC[C@@]5(C)[C@H](CC[C@@H]6[C@@H]5C[C@@H](O)[C@]5(C)[C@@H](C7=CC(=O)OC7)CC[C@]65O)C4)O[C@@H]3C)O[C@@H]2C)C[C@H](O)[C@@H]1O", "note": "[digoxin]", "values": [
      {"measurement": "time until mice reached humane endpoint euthanasia criteria", "value": "significantly longer than mice in the control groups"}
    ]}
  ]
}
